Results: PubChem BioAssay (NCI)
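Assay format: 96-well plates, 48-hour exposure. Abbreviation: GI50, concentration required for 50% inhibition of growth. The concentration for full growth arrest is given as TGI.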

Experiments:
Test in all cases: inhibition of tumour cell growth, NCI panel, 48 h
[1] = test system: BT-549 breast
[2] = test system: CAKI-1 renal
[3] = test system: HCC-2998 colon
[4] = test system: HOP-62 NSCLC
[5] = test system: HS 578T breast
[6] = test system: MOLT-4 leukemia
[7] = test system: RXF 393 renal
[8] = test system: SK-MEL-5 melanoma
[9] = test system: SNB-75 CNS

O=C(O)[C@H]1NC[C@@H]2ON=C(Br)[C@@H]21
TGI [1]: > 100 µM
TGI [2]: > 100 µM
TGI [3]: > 100 µM
TGI [4]: > 100 µM
TGI [5]: > 100 µM
TGI [6]: > 100 µM
TGI [7]: > 100 µM
TGI [8]: > 100 µM
TGI [9]: > 100 µM

CC(C(O)c1ccccc1)[N+](=O)[O-] (stereo not given)
TGI [2]: 30.6 µM
TGI [3]: 30.5 µM
TGI [4]: > 100 µM
TGI [5]: 98.7 µM
TGI [6]: 4.88 µM
TGI [7]: 27.7 µM
TGI [8]: 39.1 µM
TGI [9]: > 100 µM

CN1CCN(c2ccc3nc(-c4ccc5nc(-c6ccc(N(C)CCCl)cc6)[nH]c5c4)[nH]c3c2)CC1
TGI [2]: 17.1 µM
TGI [3]: 1.88 µM
TGI [4]: 0.645 µM
TGI [5]: 0.58 µM
TGI [6]: 0.357 µM
TGI [7]: 0.501 µM
TGI [8]: 0.517 µM
TGI [9]: 0.897 µM

COC(=O)Nc1nc2ccc(NS(=O)(=O)c3ccc(F)cc3)cc2[nH]1
TGI [1]: > 100 µM
TGI [2]: > 100 µM
TGI [4]: > 100 µM
TGI [5]: 9.66 µM
TGI [6]: 36.5 µM
TGI [7]: 78.6 µM
TGI [8]: > 100 µM
TGI [9]: 70.1 µM

Cc1cc2nc(NS(=O)(=O)c3cc(C)c(Cl)cc3S)[nH]c2cc1C
TGI [1]: > 100 µM
TGI [2]: > 100 µM
TGI [3]: > 100 µM
TGI [4]: > 100 µM
TGI [5]: > 100 µM
TGI [6]: > 100 µM
TGI [7]: > 100 µM
TGI [8]: > 100 µM
TGI [9]: > 100 µM

CCOC(=O)C1CCCC1S(=O)(=O)c1ccc(C)cc1 (stereo not given)
TGI [1]: > 100 µM
TGI [2]: > 100 µM
TGI [3]: > 100 µM
TGI [4]: > 100 µM
TGI [5]: > 100 µM
TGI [6]: > 100 µM
TGI [7]: > 100 µM
TGI [8]: > 100 µM
TGI [9]: > 100 µM

O=C(/C=C/c1ccsc1)c1ccc(Cl)s1
TGI [2]: > 100 µM
TGI [3]: > 100 µM
TGI [4]: > 100 µM
TGI [5]: > 100 µM
TGI [6]: 52 µM
TGI [8]: > 100 µM
TGI [9]: > 100 µM

COc1ccc(C2c3c(-c4ccccc4)nn(-c4ccccc4)c3Oc3ncn(N)c(=N)c32)cc1OC (stereo not given)
TGI [1]: 15 µM
TGI [2]: 4.15 µM
TGI [3]: 2.76 µM
TGI [5]: 4.37 µM
TGI [6]: > 34.4 µM
TGI [7]: 4.53 µM
TGI [9]: 3.92 µM

O=C(O)c1ccc(/C=N\N(CCO)C2=NCCN2)cc1
TGI [1]: > 100 µM
TGI [3]: > 100 µM
TGI [4]: > 100 µM
TGI [5]: > 100 µM
TGI [6]: > 100 µM
TGI [7]: > 100 µM
TGI [8]: > 100 µM
TGI [9]: > 100 µM

COc1cc(OC)c(NC2=NCCO2)cc1Cl
TGI [3]: 71.1 µM
TGI [4]: > 100 µM
TGI [5]: > 100 µM
TGI [6]: > 100 µM
TGI [7]: > 100 µM
TGI [8]: 47.3 µM
TGI [9]: > 100 µM

CCC(=O)n1c(=O)n(-c2ccc([N+](=O)[O-])cc2)c(=O)n1C(=O)CC
TGI [1]: > 100 µM
TGI [2]: > 100 µM
TGI [3]: > 100 µM
TGI [4]: > 100 µM
TGI [5]: > 100 µM
TGI [6]: > 100 µM
TGI [7]: > 100 µM
TGI [8]: > 100 µM
TGI [9]: > 100 µM

O=C(/C=C\c1ccc(OCCCCCC[P+](c2ccccc2)(c2ccccc2)c2ccccc2)cc1)c1ccc2c(c1)OCCO2
GI50 [2]: 1.84 µM
TGI [2]: 3.88 µM
GI50 [3]: 1.01 µM
TGI [3]: 2.2 µM
GI50 [5]: 0.827 µM
TGI [5]: 5.02 µM
GI50 [6]: 2.32 µM
TGI [6]: 8.57 µM
GI50 [9]: 0.623 µM
TGI [9]: 2.72 µM

CN(c1ccccc1Cl)S(=O)(=O)c1ccccc1
TGI [1]: > 100 µM
TGI [2]: > 100 µM
TGI [4]: > 100 µM
TGI [5]: > 100 µM
TGI [6]: > 100 µM
TGI [8]: > 100 µM
TGI [9]: > 100 µM

CC1(C)C(C(=O)OC(C#N)c2cccc(OCC(=O)OCc3ccccc3)c2)C1(C)C (stereo not given)
TGI [1]: > 100 µM
TGI [2]: > 100 µM
TGI [4]: > 100 µM
TGI [5]: > 100 µM
TGI [6]: 62.7 µM
TGI [7]: > 100 µM
TGI [8]: > 100 µM
TGI [9]: > 100 µM

O=C1CSC(c2c(O)ccc3ccccc23)N1n1c(=S)[nH]nc(/C=C/c2c(O)ccc3ccccc23)c1=O (stereo not given)
TGI [1]: 23.5 µM
TGI [2]: 11.4 µM
TGI [3]: 22 µM
TGI [4]: 22 µM
TGI [5]: > 100 µM
TGI [6]: > 100 µM
TGI [7]: 13.7 µM
TGI [9]: 11.4 µM

CCCCCCCCCCOC1C(C(C)OCCCN(C)C)OC2OC3(CCCCC3)OC21 (stereo not given)
TGI [2]: 28 µM
TGI [3]: 29.3 µM
TGI [4]: 31.4 µM
TGI [5]: 35.8 µM
TGI [6]: 30.6 µM
TGI [7]: 31 µM
TGI [8]: 29.5 µM
TGI [9]: 20.1 µM

O=c1[nH]c2cc([N+](=O)[O-])c(N(CCO)CCO)c([N+](=O)[O-])c2[nH]1
TGI [1]: 51.7 µM
TGI [2]: > 100 µM
TGI [4]: > 100 µM
TGI [5]: > 100 µM
TGI [6]: 91.7 µM
TGI [7]: 49.4 µM
TGI [8]: 39.7 µM
TGI [9]: 89.4 µM

CN(C)S(=O)(=O)c1cccc(-c2nc3sc4c(c3c(=O)[nH]2)CCCC4)c1
GI50 [2]: > 100 µM
TGI [2]: > 100 µM
GI50 [4]: 3.73 µM
TGI [4]: > 100 µM
GI50 [5]: 2.98 µM
TGI [5]: > 100 µM
GI50 [6]: > 100 µM
TGI [6]: > 100 µM
GI50 [8]: > 100 µM
TGI [8]: > 100 µM

O=C(O)C1C2CCC(C2)C1c1ccccc1 (stereo not given)
TGI [2]: > 100 µM
TGI [3]: > 100 µM
TGI [4]: > 100 µM
TGI [5]: > 100 µM
TGI [6]: > 100 µM
TGI [7]: > 100 µM
TGI [8]: > 100 µM
TGI [9]: > 100 µM

CCOC(=O)/C(=C\NC#N)c1nc2ccccc2[nH]1
TGI [1]: > 100 µM
TGI [2]: > 100 µM
TGI [3]: > 100 µM
TGI [4]: > 100 µM
TGI [6]: > 100 µM
TGI [7]: > 100 µM
TGI [8]: > 100 µM
TGI [9]: > 100 µM

COc1cc(C(c2cc(OC)c(OC)c(OC)c2)N2C(=O)CCC2C(=O)O)cc(OC)c1OC (stereo not given)
TGI [1]: > 100 µM
TGI [2]: > 100 µM
TGI [4]: > 100 µM
TGI [5]: > 100 µM
TGI [6]: > 100 µM
TGI [7]: > 100 µM
TGI [8]: > 100 µM
TGI [9]: > 100 µM

CCNC(=O)CCCCC(=O)c1c(C)[nH]c(/C=C2\N=C(c3ccc[nH]3)C=C2OC)c1C
GI50 [1]: 2.85 µM
TGI [1]: 10.3 µM
GI50 [2]: 2.09 µM
TGI [2]: 5 µM
GI50 [3]: 2.42 µM
TGI [3]: 7.9 µM
GI50 [4]: 1.1 µM
TGI [4]: 2.88 µM
GI50 [5]: 2.04 µM
TGI [5]: 4.92 µM
GI50 [6]: 2.31 µM
TGI [6]: > 100 µM
GI50 [7]: 2.97 µM
TGI [7]: 8.41 µM
GI50 [8]: 11.7 µM
TGI [8]: 24.9 µM
GI50 [9]: 3.26 µM
TGI [9]: 24.4 µM
